Patent publication US9187413B2, “Peripherally restricted FAAH inhibitors” (The Regents of the University of California, priority 2010, dated 2015)

Tests used:
sciatic nerve ligation = assay: Sciatic nerve ligation pain behavior; type: in vivo; details: mice
Description: Surgery. We performed sciatic nerve ligations in male Swiss mice, as previously described for rats^24 with minor modifications^39.
(§1) Behavioral tests. We measured nocifensive responses elicited by i.p. injection of acetic acid in male Swiss and C57B1/6 (wild-type or FAAH-deficient) mice^40, intraplantar injection of carrageenan in male Swiss mice^20, intraplantar injection of formalin in male Sprague-Dawley rats^41, and sciatic nerve ligation in male Swiss mice^39.
Surgeries All surgeries were conducted under aseptical conditions. Implantation of cannulae for intracerebroventricular (i.c.v.) drug administration. SD rats were anesthesized using a mixture of ketamine (70 mg-kg^−1, i.p.) and xylazine (9.33 mg-kg^−1, i.p.). They were placed in a stereotaxic frame and stabilized by ear bars (David Kopf Instruments, Tujunga, Calif., USA) with the incisor bar set 2.4 mm below the horizontal plane. A 22-gauge stainless-steel guide cannula was implanted into the right lateral cerebral ventricle 7 days prior to experiments. Coordinates for implantation (−0.9 mm antero/posterior and −1.5 mm medio/lateral relative to bregma, and 3.8 mm below the surface of the skull) were determined using the Paxinos and Watson rat brain atlas^45. Guide cannulae were anchored to the skull with 3 stainless-steel screws and dental cement, and were kept patent until injection by insertion of a dummy stylet. […]
Behavioral tests Acetic acid-induced writhing was measured in Swiss mice or C57B1/6 mice (wild-type and FAAH-deficient), as described^40 with minor modifications. […] Abdominal stretches (extension of body and hind limbs) were counted for 20 min, starting 5 min after acetic acid injection. […] Behavior was scored by an observer blinded to the treatment conditions. Formalin-induced nociception was assessed in Sprague-Dawley rats, as described^41. […]

[1] = test system: blood-brain barrier transporters; assay: Co-administration of inhibitors of blood-brain barrier transporters with URB937; type: in vivo; details: rats, URB937 25 mg-kg^-1 i.p.
[2] = test system: carrageenan-induced inflammation; assay: Carrageenan-induced hyperalgesia, allodynia and paw edema; type: in vivo, mice; details: mice, 1 mg-kg^-1, i.p.
Protocol: as §1
Behavioral tests Acetic acid-induced writhing was measured in Swiss mice or C57B1/6 mice (wild-type and FAAH-deficient), as described^40 with minor modifications. Briefly, the mice were acclimated to the experimental room for 2 h. Each animal was injected with acetic acid (150 μL, 0.6% in saline) and placed into a glass cylinder. Abdominal stretches (extension of body and hind limbs) were counted for 20 min, starting 5 min after acetic acid injection. […] Behavior was scored by an observer blinded to the treatment conditions. Formalin-induced nociception was assessed in Sprague-Dawley rats, as described^41. The rats were singly housed and kept in a shared holding room under a 12:12 h light:dark cycle. They were given free access to food and water, and allowed to acclimate to the facility for a week before testing. […] They were acclimated to the observation container (clear plexiglas box, 29×29×25 cm) for 15 min before receiving an injection of formalin (50 μL, 5% in saline) into the dorsal surface of the right hind paw. Immediately after formalin injection, the rats were returned to the observation container and nocifensive behavior was recorded for 60 min with a video camera. Recordings were analyzed by observers blinded to treatment conditions. Nocifensive behavior was measured continuously for 60 min^41. […] Each 5-min bin was analyzed for time spent (1) lifting and (2) licking or biting the injected paw. Nocifensive behavior was analyzed using the composite pain score weighted scores technique (CPS-WST1,2) calculated for the entire time of observation (0-60 min) and, separately, for the first (0-10 min) and second phase (10-60 min) of the behavioral response^46. The area under the curve (AUC) corresponding to CPS-WST1,2 was calculated using the trapezoidal rule. Paw edema was induced in mice by injection into the right hind paws of 50 μL of sterile saline containing 1% λ-carrageenan. Paw volumes were measured using a plethysmometer (Ugo Basile, Milan, Italy). […] Rimonabant and AM630 (1 mg kg^−1, i.p.) were injected 30 min before carrageenan. Mechanical hyperalgesia was assessed by measuring the latency(s) to withdraw the paw from a constant mechanical pressure exerted onto its dorsal surface. A 15-g calibrated glass cylindrical rod (diameter=10 mm) chamfered to a conical point (diameter=3 mm) was used to exert the mechanical force. The weight was suspended vertically between two rings attached to a stand and was free to move vertically. A cutoff time of 3 min was used. Thermal hyperalgesia was assessed as described^47, measuring the latency to withdraw the hind paw from a focused beam of radiant heat (thermal intensity: infrared 3.0) applied to the plantar surface, using a commercial apparatus (Ugo Basile, Varese, Italy). The cutoff time was set at 30 s. Mechanical allodynia was assessed by applying a graded force to the plantar hind paw surface with a Von Frey filament, using a Dynamic Plantar Anesthesiometer (Ugo Basile). The cutoff force was set at 50 g.

[3] = single dose 1 mg-kg^-1, i.p., 2 h before testing, one week after surgery, operated paws

NC(=O)c1cccc(-c2cc(OC(=O)NC3CCCCC3)ccc2O)c1 [Compound 1b, cyclohexylcarbamic acid 3′-carbamoyl-6-hydroxybiphenyl-3-yl ester]
antinociceptive effect of repeated injections after sciatic nerve ligation (sciatic nerve ligation; 1 mg-kg^-1, i.p., once daily for 4 days, starting 3 days after ligation): undistinguishable from that caused by single drug dosing | mechanical hyperalgesia and mechanical allodynia after sciatic nerve ligation (sciatic nerve ligation; [3]): suppressed mechanical hyperalgesia and mechanical allodynia | thermal hyperalgesia after sciatic nerve ligation (sciatic nerve ligation; [3]): attenuated thermal hyperalgesia | access of URB937 to the brain with Ko-143 ([1]; co-administration of BCRP inhibitor Ko-143): dose-dependent increase | access of URB937 to the brain with verapamil or probenecid ([1]; co-administration of verapamil or probenecid): no such effect | carrageenan-induced paw edema, 4 h ([2]; 4 h after carrageenan): did not affect paw edema | carrageenan-induced mechanical and thermal hyperalgesia ([2]; 4 h and 24 h following carrageenan): significant decrease | carrageenan-induced mechanical allodynia ([2]; 24 h after carrageenan): suppressed mechanical allodynia | carrageenan-induced paw edema, 24 h ([2]; 24 h after carrageenan): reversed it
